Reference: patent US9566290B2, “Boron-containing small molecules” (Anacor Pharmaceuticals, Inc., priority 2005, dated 2017)
≈ marks a conversion by molar mass, not a printed value. Read-outs that look alike come from different tables or passages of the source.

Experiments:
[1] = test system: Saccharomyces cerevisiae strain ATCC 201388; assay: MIC (NCCLS M27, YPD or synthetic defined media), haploid parental strain; assay type: cell-based
Description: (§1) The haploid Saccharomyces cerevisiae strain ATCC 201388 was used in the selection of C10 resistant mutants. Spontaneous and EMS-induced resistant mutants were isolated from YPD agar plates containing 4×, 8×, 16×MIC of C10. All minimal inhibitory concentrations (MIC) were determined using NCCLS protocol M27 with the exception of using YPD or synthetic defined media. All yeast and molecular genetic manipulations were essentially performed as described by Guthrie C., et al., Methods in Enzymology, 350: Part B, (2002).
(§2) The minimal inhibitory concentration (MIC) was essentially performed following the NCCLS guidelines outlined in the M27 protocol with the exception of using YPD or synthetic defined media (SDM).

[2] = test system: S. cerevisiae C10 resistant mutants (CDC60 editing domain mutations); assay: MIC (NCCLS M27), spontaneous and EMS induced C10 resistant mutants; assay type: cell-based, Saccharomyces cerevisiae
Description: as §1
Resistant mutants appeared after 2 d incubation at 30° C. Frequency of resistance was determined by dividing the number of resistant mutants by the total number of cells plated as determined by plating dilutions of the overnight culture on YPD plates.
A 2.5 mL of the overnight culture, which was grown in YPD media, was centrifuged at 700×g for 5 minutes. The cell pellet was resuspended in 10 mL 50 mM potassium phosphate buffer, pH 7.0. The cell suspension was centrifuged again and the cell pellet was resuspended in phosphate buffer to obtain a cell density of 5×10^7 cells/mL as determined by counting the cells using a Petroff Hausser Counting Chamber (Horsham, Pa. USA). The cell suspension was shaken with 300 μL of EMS (Alfa Aesar, Ward Hill, Mass., USA) for 30 min. at 30° C. The mutagenesis was stopped by adding 10% (w/v) sodium thiosulfate (Sigma-Aldrich, St. Louis, Mo., USA), and the cells were pelleted by centrifugation at 700×g for 5 min. and resuspended in 1 mL sterile H2O. This was repeated once more before the cells were plated on YPD agar plates containing 1.6 μg/mL of C10.
as §2

[3] = test system: S. cerevisiae ATCC201388 bearing pRS425 or CDC60 on pRS425; assay: MIC with over-expression of wild type CDC60; assay type: cell-based, Saccharomyces cerevisiae; conditions: Saccharomyces cerevisiae
Text: as §2
A 4.0 kb BamH I-Sal I DNA fragment containing the entire CDC60 open reading frame (ORF) and 700 bp of upstream sequence was amplified using KOD DNA polymerase, S. cerevisiae genomic DNA (Novagen, Madison, Wis., USA), and the primers GAGGGATCCGGTTAGTTTTAGTTCGCGAGTGACCTG and GAGGTCGACGATTTCTGGTTGCTGTTTATTGATCTT (Operon, Alameda, Calif., USA). This DNA fragment was then cloned into the […] multi-copy plasmid pRS425, and transformed into S. cerevisiae ATCC201388 (Gietz, R D et al., Methods in Enzymology 305: 87-96 (2002)).

[4] = Table 2, C10 resistant mutant (C)
[5] = Table 2, C10 resistant mutant (G)
[6] = Table 2, C10 resistant mutant (H)
[7] = Saccharomyces cerevisiae, ATCC201388, Table 2, ATCC201388, read-out: MIC
[8] = Saccharomyces cerevisiae, Table 2, C10 resistant mutant (C)
[9] = Saccharomyces cerevisiae, Table 2, C10 resistant mutant (G)
[10] = Saccharomyces cerevisiae, Table 2, C10 resistant mutant (H)

Compound: C[C@@H]1C[C@@H]([C@H](O)CC2CC(=O)NC(=O)C2)C(=O)[C@@H](C)C1 [Cyclohexamide]
- MIC ([1]; Table 2, ATCC201388): <0.06 µg/mL
- resistance of C10 resistant mutants to other antifungals, in words [2]: not resistant
- MIC [2, 4]: <0.06 µg/mL
- MIC [2, 5]: <0.06 µg/mL
- MIC [2, 6]: <0.06 µg/mL

Compound: Aculeacin A
- MIC ([1]; Table 2, ATCC201388): 4 µg/mL
- resistance of C10 resistant mutants to other antifungals, in words [2]: not resistant
- MIC [2, 4]: 4 µg/mL
- MIC [2, 5]: 4 µg/mL
- MIC [2, 6]: 4 µg/mL

Compound: C[C@@H]([C@H](N)C(=O)N[C@H](C(=O)O)[C@H]1O[C@@H](n2ccc(=O)[nH]c2=O)[C@H](O)[C@@H]1O)[C@H](O)c1ccc(O)cn1 [Nikkomycin Z]
- MIC ([1]; Table 2, ATCC201388): 64 µg/mL (≈ 129 µM)
- resistance of C10 resistant mutants to other antifungals, in words [2]: not resistant
- MIC [2, 4]: 64 µg/mL (≈ 129 µM)
- MIC [2, 5]: 64 µg/mL (≈ 129 µM)
- MIC [2, 6]: 64 µg/mL (≈ 129 µM)

Compound: C[C@@H]1[C@H](O)[C@@H](C)/C=C/C=C/C=C/C=C/C=C/C=C/C=C/[C@H](O[C@@H]2O[C@H](C)[C@@H](O)[C@H](N)[C@@H]2O)C[C@@H]2O[C@](O)(C[C@@H](O)C[C@@H](O)[C@H](O)CC[C@@H](O)C[C@@H](O)CC(=O)O[C@H]1C)C[C@H](O)[C@H]2C(=O)O [Amphotericin B]
- MIC ([1]; Table 2, ATCC201388): 0.125 µg/mL (≈ 0.135 µM)
- resistance of C10 resistant mutants to other antifungals, in words [2]: not resistant

Compound: CCC(C)n1ncn(-c2ccc(N3CCN(c4ccc(OCC5COC(Cn6cncn6)(c6ccc(Cl)cc6Cl)O5)cc4)CC3)cc2)c1=O (centres unmarked) [Itraconazole]
- MIC [1, 7]: 0.125 µg/mL (≈ 0.177 µM)
- MIC [2, 8]: 0.125 µg/mL (≈ 0.177 µM)
- MIC [2, 9]: 0.125 µg/mL (≈ 0.177 µM)
- MIC [2, 10]: 0.125 µg/mL (≈ 0.177 µM)

Compound: CN(C/C=C/C#CC(C)(C)C)Cc1cccc2ccccc12 [Terbinafine]
- MIC [1, 7]: 4 µg/mL (≈ 13.7 µM)
- resistance of C10 resistant mutants to other antifungals, in words [2]: not resistant
- MIC [2, 8]: 4 µg/mL (≈ 13.7 µM)
- MIC [2, 9]: 4 µg/mL (≈ 13.7 µM)
- MIC [2, 10]: 4 µg/mL (≈ 13.7 µM)

Compound: C/C=C/C/C=C/CCC(=O)[C@H]1O[C@H]1C(N)=O [Cerulenin]
- MIC ([1]; Saccharomyces cerevisiae, ATCC201388, Table 1, haploid strain ATCC201388, read-out: MIC): 1 µg/mL (≈ 4.48 µM)
- MIC [1, 7]: 0.5 µg/mL (≈ 2.24 µM)
- resistance of C10 resistant mutants to other antifungals, in words [2]: not resistant
- MIC ([2]; Saccharomyces cerevisiae, Table 1, mutant (A), CDC60 N415D): 0.5 µg/mL (≈ 2.24 µM)
- MIC ([2]; Saccharomyces cerevisiae, Table 1, mutant (B), CDC60 R316I): 0.5 µg/mL (≈ 2.24 µM)
- MIC ([2]; Saccharomyces cerevisiae, Table 1, mutant (C), CDC60 C326F): 0.5 µg/mL (≈ 2.24 µM)
- MIC ([2]; Saccharomyces cerevisiae, Table 1, mutant (D), CDC60 G405V): 0.5 µg/mL (≈ 2.24 µM)
- MIC ([2]; Saccharomyces cerevisiae, Table 1, mutant (E), CDC60 C326R): 0.5 µg/mL (≈ 2.24 µM)
- MIC ([2]; Saccharomyces cerevisiae, Table 1, mutant (F), CDC60 D487G): 0.5 µg/mL (≈ 2.24 µM)
- MIC ([2]; Saccharomyces cerevisiae, Table 1, mutant (G), CDC60 L315V): 0.5 µg/mL (≈ 2.24 µM)
- MIC ([2]; Saccharomyces cerevisiae, Table 1, mutant (H), CDC60 T314M): 0.5 µg/mL (≈ 2.24 µM)
- MIC ([2]; Saccharomyces cerevisiae, Table 1, mutant (I), CDC60 S416L): 1 µg/mL (≈ 4.48 µM)
- MIC ([2]; Saccharomyces cerevisiae, Table 1, mutant (J), CDC60 D487N): 1 µg/mL (≈ 4.48 µM)
- MIC ([2]; Saccharomyces cerevisiae, Table 1, mutant (K), CDC60 T319I): 1 µg/mL (≈ 4.48 µM)
- MIC [2, 8]: 0.5 µg/mL (≈ 2.24 µM)
- MIC [2, 9]: 0.5 µg/mL (≈ 2.24 µM)
- MIC [2, 10]: 0.5 µg/mL (≈ 2.24 µM)

Compound: Tunicamycin
- MIC ([1]; Table 2, ATCC201388): 8 µg/mL
- resistance of C10 resistant mutants to other antifungals, in words [2]: not resistant
- MIC [2, 4]: 8 µg/mL
- MIC [2, 5]: 8 µg/mL
- MIC [2, 6]: 8 µg/mL

Compound: OB1OCc2cc(F)c(NCc3ccccc3)cc21 [C71, 6-(benzylamino)-5-fluorobenzo[c][1,2]oxaborol-1(3H)-ol]
- melting point: 159 to 164 °C

Compound: OB1OCc2cc3c(cc21)OCO3 [C69, 5,6-methylenedioxybenzo[c][1,2]oxaborol-1(3H)-ol]
- melting point: 185 to 189 °C

Compound: OB1OCc2cc3c(cc21)COB3O [C60, 3,7-dihydro-1,5-dihydroxy-1H,3H-Benzo[2-c: 4,5-c′]bis[1,2]oxaborole]
- melting point: > 250 °C

Compound: CC(=O)Nc1ccc2c(c1)B(O)OC2 [C63, N-(1-hydroxy-1,3-dihydrobenzo[c][1,2]oxaborol-6-yl)acetamide]
- melting point: 176 to 185 °C

Compound: OB1OCc2ccc(-n3ccc4cc(Cl)ccc43)cc21 [C75, 6-(5-chloro-1H-indol-1-yl)benzo[c][1,2]oxaborol-1(3H)-ol]
- melting point: 149 to 154 °C

Compound: CCCCC(=O)c1cccc(COc2ccc3c(c2)COB3O)c1 [C45, 1-(3-((1-hydroxy-1,3-dihydrobenzo[c][1,2]oxaborol-5-yloxy)methyl)phenyl)pentan-1-one]
- melting point: 96 to 98 °C

Compound: N#CCCSc1cn(-c2ccc3c(c2)B(O)OC3)c2ccc(Cl)cc12 [C76, 3-(5-chloro-1-(1-hydroxy-1,3-dihydrobenzo[c][1,2]oxaborol-6-yl)-1H-indol-3-ylthio)propanenitrile]
- melting point: > 225 °C

Compound: OB1OCc2ccc(Sc3ccc(Cl)cc3)cc21 [C88, 6-(4-chlorophenylthio)benzo[c][1,2]oxaborol-1(3H)-ol]
- melting point: 157 to 161 °C

Compound: OB1OCc2ccc(N(Cc3ccccc3)Cc3ccccc3)cc21 [C78, 6-(dibenzylamino)benzo[c][1,2]oxaborol-1(3H)-ol]
- melting point: 115 to 123 °C

Compound: Cc1cccc2c1B(O)OC2 [C65, 7-methylbenzo[c][1,2]oxaborol-1(3H)-ol]
- melting point: 107 to 111 °C

Compound: O=S(=O)(c1ccccc1)N(c1ccc2c(c1)COB2O)S(=O)(=O)c1ccccc1 [C91, N-(1-hydroxy-1,3-dihydrobenzo[c][1,2]oxaborol-5-yl)-N-(phenylsulfonyl)benzenesulfonamide]
- melting point: 142 to 152 °C

Compound: O=[N+]([O-])c1cc2c(cc1F)COB2O [C58, 5-fluoro-6-nitrobenzo[c][1,2]oxaborol-1(3H)-ol]
- melting point: 162 to 167 °C

Compound: Cc1ccc(Sc2ccc3c(c2)B(O)OC3)cc1 [C95, 6-(p-tolylthio)benzo[c][1,2]oxaborol-1(3H)-ol]
- melting point: 139 to 144 °C

Compound: N#CCCSc1cn(-c2ccc3c(c2)B(O)OC3)c2ccccc12 [C67, 3-(1-(1-hydroxy-1,3-dihydrobenzo[c][1,2]oxaborol-6-yl)-1H-indol-3-ylthio)propanenitrile]
- melting point: 135 to 141 °C

Compound: OC(Cn1cncn1)(Cn1cncn1)c1ccc(F)cc1F [Fluconazole, reference compound]
- MIC ([3]; ATCC201388, CDC60 on pRS425 (20 copies)): 2 µg/mL (≈ 6.53 µM)
- MIC ([3]; ATCC201388, pRS425 Plasmid control): 2 µg/mL (≈ 6.53 µM)

Compound: N#Cc1ccc(Oc2cccc3c2B(O)OC3)cc1 [C74, 4-(1-hydroxy-1,3-dihydrobenzo[c][1,2]oxaborol-7-yloxy)benzonitrile]
- melting point: 148 to 153 °C

Compound: CSc1ccc(Sc2ccc3c(c2)B(O)OC3)cc1 [C94, 6-(4-(methylthio)phenylthio)benzo[c][1,2]oxaborol-1(3H)-ol]
- melting point: 117 to 120 °C

Compound: OB1OCc2ccc(Oc3ccccc3)cc21 [C21, 6-phenoxybenzo[c][1,2]oxaborol-1(3H)-ol]
- melting point: 95 to 99 °C

Compound: [O-][S+](c1ccc(C(F)(F)F)cc1)c1ccc2c(c1)B(O)OC2 (centres unmarked) [C93, 6-(4-(trifluoromethyl)phenylsulfinyl)benzo[c][1,2]oxaborol-1(3H)-ol]
- melting point: 79 to 88 °C
